Patent US20180194799A1, “BETUIN DERIVATIVES FOR PREVENTING OR TREATING HIV INFECTIONS” (GLAXOSMITHKLINE INTELLECTUAL PROPERTY (NO.2) LIMITED, priority 2015, published 2018)
Counter-ions that a name gives are not always drawn.

Legend:
[1] = system: NL4-3 wt; experiment: MT4 Cell Antiviral Assay, NL4-3 wt; assay type: cell-based, HIV-1; conditions: Human immunodeficiency virus 1, NL43, 120 h; HIV MT4 Antiviral Cell Assay of Example 17, 5 days incubation
[2] = system: V370A; experiment: MT4 Cell Antiviral Assay, V370A; assay type: cell-based, HIV-1; conditions: Human immunodeficiency virus 1, MT4, 120 h, read-out: EC50 V370A (nM)
[3] = system: HIV-1 (strain IIIB); experiment: MT4 Cell Antiviral Assay (general statements and standard); assay type: cell-based; conditions: Human immunodeficiency virus 1, IIIB; control and standard in every assay, propidium iodide readout, MT4 cells; read-out: expected range of IC50 values
Experimental: Antiviral HIV activity and compound-induced cytotoxicity were measured in parallel by means of a propidium iodide based procedure in the human T-cell lymphotropic virus transformed cell line MT4. Aliquots of the test compounds were serially diluted in medium (RPMI 1640, 10% fetal calf serum (FCS), and gentamycin) in 96-well plates (Costar 3598) using a Cetus Pro/Pette. Exponentially growing MT4 cells were harvested and centrifuged at 1000 rpm for 10 min in a Jouan centrifuge (model CR 4 12). Cell pellets were resuspended in fresh medium (RPMI 1640, 20% FCS, 20% IL-2, and gentamycin) to a density of 5×10^5 cells/ml. Cell aliquots were infected by the addition of HIV-1 (strain IIIB) diluted to give a viral multiplicity of infection of 100×TCID50. […]
For propidium iodide readout, 27 μl of 5% Nonidet-40 was added to each well of the incubation plate. […]
For MTS readout, 20 μl CellTiter 96 AQ One Solution reagent (Promega #G3582) was added to each well. At 75 minutes following the addition of MTS reagent, absorbance was read at 492 nm using a Tecan Sunrise 96-well plate reader. […]
For each assay plate, the results (relative fluorescence units, rfU, or OD values) of wells containing uninfected cells or infected cells with no compound were averaged, respectively. […] Percent of cells remaining is determined by the following formula: […]

[4] = system: HIV; conditions: cited from earlier work

IC50 [3]	SMILES	EC50 [1]	EC50 [2]	HIV viral load reduction (mean) ([4]; patients with trough levels >=20 μg/mL and without baseline Gag polymorphisms at Q369, V370 or T371)	viral load reduction versus patients without Gag polymorphisms ([4]; users with Gag polymorphisms at Q369, V370 or T371)
	CC(C)C1=C2[C@H]3CC[C@@H]4[C@@]5(C)CC=C(c6ccc(C(=O)O)cc6)C(C)(C)C5CC[C@@]4(C)[C@]3(C)CC[C@@]2([C@@H](O)CN(CC2CCC2)C(=O)CN(C)C)CC1=O (stereo in doubt) [Example 6, 4-((3aR,5aR,5bR,7aR,11aS,11bR,13aS)-3a-((R)-2-(N-(cyclobutylmethyl)-2-(dimethylamino)acetamido)-1-hydroxyethyl)-1-isopropyl-5a,5b,8,8,11a-pentamethyl-2-oxo-3,3a,4,5,5a,5b,6,7,7a,8,11,11a,11b,12,13,13a-hexadecahydro-2H-cyclopenta[a]chrysen-9-yl)benzoic acid hydrochloride]	3 nM	8.9 nM		
40 to 120 nM	Cc1cn([C@H]2C[C@H](N=[N+]=[N-])[C@@H](CO)O2)c(=O)[nH]c1=O [3′-azido-3′-deoxythymidine]				
	COCC(=O)N(CC1CC1)C[C@H](O)[C@@]12CC[C@]3(C)[C@H](CC[C@@H]4[C@@]5(C)CC=C(c6cn(CC(=O)O)nn6)C(C)(C)[C@@H]5CC[C@]43C)C1=C(C(C)C)C(=O)C2 [Example 12, 2-(4-((3aR,5aR,5bR,7aR,11aS,11bR,13aS)-3a-((R)-2-(N-(cyclopropylmethyl)-2-methoxyacetamido)-1-hydroxyethyl)-1-isopropyl-5a,5b,8,8,11a-pentamethyl-2-oxo-3,3a,4,5,5a,5b,6,7,7a,8,11,11a,11b,12,13,13a-hexadecahydro-2H-cyclopenta[a]chrysen-9-yl)-1H-1,2,3-triazol-1-yl)acetic acid hydrochloride]	20400 nM	15500 nM		
	CC(=O)N(CC1CC1)C[C@H](O)[C@@]12CC[C@]3(C)[C@H](CC[C@@H]4[C@@]5(C)CC=C(c6ccc(C(=O)O)cc6)C(C)(C)[C@@H]5CC[C@]43C)C1=C(C(C)C)C(=O)C2 [Example 11, 4-((3aR,5aR,5bR,7aR,11aS,11bR,13aS)-3a-((R)-2-(N-(cyclopropylmethyl)acetamido)-1-hydroxyethyl)-1-isopropyl-5a,5b,8,8,11a-pentamethyl-2-oxo-3,3a,4,5,5a,5b,6,7,7a,8,11,11a,11b,12,13,13a-hexadecahydro-2H-cyclopenta[a]chrysen-9-yl)benzoic acid]	39.8 nM	24.5 nM		
	CC(C)C1=C2[C@H]3CC[C@@H]4[C@@]5(C)CC=C(c6ccc(C(=O)O)cc6)C(C)(C)[C@@H]5CC[C@@]4(C)[C@]3(C)CC[C@@]2([C@@H](O)CN(CCN(C)C)CC2CC2)CC1=O [Example 10, 4-((3aR,5aR,5bR,7aR,11aS,11bR,13aS)-3a-((R)-2-((cyclopropylmethyl)(2-(dimethylamino)ethyl)amino)-1-hydroxyethyl)-1-isopropyl-5a,5b,8,8,11a-pentamethyl-2-oxo-3,3a,4,5,5a,5b,6,7,7a,8,11,11a,11b,12,13,13a-hexadecahydro-2H-cyclopenta[a]chrysen-9-yl)benzoic acid hydrochloride]	7.8 nM	7.9 nM		
	C=C(C)[C@@H]1CC[C@]2(C(=O)O)CC[C@]3(C)[C@H](CC[C@@H]4[C@@]5(C)CC[C@H](OC(=O)CC(C)(C)C(=O)O)C(C)(C)[C@@H]5CC[C@]43C)[C@@H]12 [Bevirimat]			1.3 log10/mL	significantly lower load reductions
	CC(C)C1=C2[C@H]3CC[C@@H]4[C@@]5(C)CC=C(c6ccc(C(=O)O)cc6)C(C)(C)C5CC[C@@]4(C)[C@]3(C)CC[C@@]2([C@@H](O)CN(CC2CC2)C(=O)CN2CCCC2)CC1=O (stereo in doubt) [Example 3, 4-((3aR,5aR,5bR,7aR,11aS,11bR,13aS)-3a-((R)-2-(N-(cyclopropylmethyl)-2-(pyrrolidin-1-yl)acetamido)-1-hydroxyethyl)-1-isopropyl-5a,5b,8,8,11a-pentamethyl-2-oxo-3,3a,4,5,5a,5b,6,7,7a,8,11,11a,11b,12,13,13a-hexadecahydro-2H-cyclopenta[a]chrysen-9-yl)benzoic acid hydrochloride]	2.8 nM	6.5 nM		
	CC(C)C1=C2[C@H]3CC[C@@H]4[C@@]5(C)CC=C(c6ccc(C(=O)O)cc6)C(C)(C)C5CC[C@@]4(C)[C@]3(C)CC[C@@]2([C@@H](O)CN(CC2CC2)C(=O)CN2CCCC2=O)CC1=O (stereo in doubt) [Example 4, 4-((3aR,5aR,5bR,7aR,11aS,11bR,13aS)-3a-((R)-2-(N-(cyclopropylmethyl)-2-(2-oxopyrrolidin-1-yl)acetamido)-1-hydroxyethyl)-1-isopropyl-5a,5b,8,8,11a-pentamethyl-2-oxo-3,3a,4,5,5a,5b,6,7,7a,8,11,11a,11b,12,13,13a-hexadecahydro-2H-cyclopenta[a]chrysen-9-yl)benzoic acid]	10.2 nM	1020 nM		
	CC(C)C1=C2[C@H]3CC[C@@H]4[C@@]5(C)CC=C(c6ccc(C(=O)O)cc6)C(C)(C)[C@@H]5CC[C@@]4(C)[C@]3(C)CC[C@@]2([C@@H](O)CN(CC2CC2)C(=O)CN(C)C)CC1=O [Example 1, 4-((3aR,5aR,5bR,7aR,11aS,11bR,13aS)-3a-((R)-2-(N-(cyclopropylmethyl)-2-(dimethylamino)acetamido)-1-hydroxyethyl)-1-isopropyl-5a,5b,8,8,11a-pentamethyl-2-oxo-3,3a,4,5,5a,5b,6,7,7a,8,11,11a,11b,12,13,13a-hexadecahydro-2H-cyclopenta[a]chrysen-9-yl)benzoic acid]	3.7 nM	17 nM		
	CC(C)C1=C2[C@H]3CC[C@@H]4[C@@]5(C)CC=C(c6ccc(C(=O)O)cc6)C(C)(C)[C@@H]5CC[C@@]4(C)[C@]3(C)CC[C@@]2([C@@H](O)CNCC2CC2)CC1=O [Example 9, 4-((3aR,5aR,5bR,7aR,11aS,11bR,13aS)-3a-((R)-2-((cyclopropylmethyl)amino)-1-hydroxyethyl)-1-isopropyl-5a,5b,8,8,11a-pentamethyl-2-oxo-3,3a,4,5,5a,5b,6,7,7a,8,11,11a,11b,12,13,13a-hexadecahydro-2H-cyclopenta[a]chrysen-9-yl)benzoic acid hydrochloride]	69.2 nM	10000 nM		
	CC(C)C1=C2[C@H]3CC[C@@H]4[C@@]5(C)CC=C(c6ccc(C(=O)O)cc6)C(C)(C)C5CC[C@@]4(C)[C@]3(C)CC[C@@]2([C@@H](O)CN(CC2CCC2)C(=O)CN2CCCC2)CC1=O (stereo in doubt) [Example 5, 4-((3aR,5aR,5bR,7aR,11aS,11bR,13aS)-3a-((R)-2-(N-(cyclobutylmethyl)-2-(pyrrolidin-1-yl)acetamido)-1-hydroxyethyl)-1-isopropyl-5a,5b,8,8,11a-pentamethyl-2-oxo-3,3a,4,5,5a,5b,6,7,7a,8,11,11a,11b,12,13,13a-hexadecahydro-2H-cyclopenta[a]chrysen-9-yl)benzoic acid hydrochloride]	35.4 nM	3.8 nM		
	COCC(=O)N(CC1CC1)C[C@H](O)[C@@]12CC[C@]3(C)[C@H](CC[C@@H]4[C@@]5(C)CC=C(c6ccc(C(=O)O)cc6)C(C)(C)C5CC[C@]43C)C1=C(C(C)C)C(=O)C2 (stereo in doubt) [Example 2, 4-((3aR,5aR,5bR,7aR,11aS,11bR,13aS)-3a-((R)-2-(N-(cyclopropylmethyl)-2-methoxyacetamido)-1-hydroxyethyl)-1-isopropyl-5a,5b,8,8,11a-pentamethyl-2-oxo-3,3a,4,5,5a,5b,6,7,7a,8,11,11a,11b,12,13,13a-hexadecahydro-2H-cyclopenta[a]chrysen-9-yl)benzoic acid]	15.5 nM	389 nM		
